{"source": "patent US20250382322A1", "about": "“DIAGNOSTICS FOR DETECTING ECTO-5'-NUCLEOTIDASE (CD73)” (EBERHARD KARLS UNIVERSITÄT TÜBINGEN, priority 2022, published 2025)", "key": {"[1]": {"biological_target": "T1, human NTPDase3 (Homo sapiens, UniProt O75355)", "T1 sequence (O75355 1-529)": "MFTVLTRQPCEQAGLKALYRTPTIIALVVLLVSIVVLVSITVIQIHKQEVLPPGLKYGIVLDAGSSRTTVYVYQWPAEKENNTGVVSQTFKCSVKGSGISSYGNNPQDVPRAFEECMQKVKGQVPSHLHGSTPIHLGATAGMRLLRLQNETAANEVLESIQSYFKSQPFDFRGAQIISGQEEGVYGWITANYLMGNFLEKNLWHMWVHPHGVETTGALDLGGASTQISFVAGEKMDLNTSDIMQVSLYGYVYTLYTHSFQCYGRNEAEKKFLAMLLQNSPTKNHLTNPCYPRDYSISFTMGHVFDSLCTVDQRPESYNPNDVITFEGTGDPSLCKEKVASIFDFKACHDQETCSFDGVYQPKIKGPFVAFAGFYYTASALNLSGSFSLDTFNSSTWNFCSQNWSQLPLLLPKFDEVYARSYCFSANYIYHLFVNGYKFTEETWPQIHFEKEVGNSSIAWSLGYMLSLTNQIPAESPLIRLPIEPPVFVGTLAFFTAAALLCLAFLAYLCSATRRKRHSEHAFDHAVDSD", "experiment": "Capillary electrophoresis assay for human NTPDase3", "assay_type": "biochemical", "details": "ATP (100 μM) as substrate", "protocol": "Inhibitory activity of the CD73 inhibitors 2 and 20 at human NTPDases 1, 2, 3, and 8 was investigated using ATP (100 μM) as a substrate according to previously published procedures.^24 ATP and 2 were co-incubated with recombinantly expressed human NTPDases at 37° C. for 30 min, and the enzymatic reaction was terminated by heating at 90° C. for 10 min. The amount of enzyme preparation was adjusted to ensure 10-20% of substrate conversion. The formed products were separated by capillary electrophoresis (CE) and individually quantitated by diode array detection (DAD) at a wavelength of 260 nm. For inhibition analysis, at least three independent experiments were performed each in triplicate. The inhibition of the enzyme activity was calculated in relation to the positive control without inhibitor and plotted by GraphPad Prism 8 software (GraphPad software, San Diego, CA, USA) (for results see Table 2 and Table 3).\nTest compounds were investigated at a concentration of 50 μM, and 100 μM ATP substrate according to published procedures.^24 Recombinantly expressed human NTPDases were employed. The amount of enzyme preparation was adjusted to ensure 10-20% of substrate conversion. […] The inhibition of the enzyme activity was calculated in relation to the positive control without inhibitor and plotted in GraphPad Prism 8 software (GraphPad software, San Diego, CA, USA). […]"}, "[2]": {"biological_target": "T2, human P2Y12 receptor (Homo sapiens, UniProt Q9H244)", "T2 construct": "host or cells: CHO-PK1 cells (so in the source)", "T2 sequence (Q9H244 whole entry)": "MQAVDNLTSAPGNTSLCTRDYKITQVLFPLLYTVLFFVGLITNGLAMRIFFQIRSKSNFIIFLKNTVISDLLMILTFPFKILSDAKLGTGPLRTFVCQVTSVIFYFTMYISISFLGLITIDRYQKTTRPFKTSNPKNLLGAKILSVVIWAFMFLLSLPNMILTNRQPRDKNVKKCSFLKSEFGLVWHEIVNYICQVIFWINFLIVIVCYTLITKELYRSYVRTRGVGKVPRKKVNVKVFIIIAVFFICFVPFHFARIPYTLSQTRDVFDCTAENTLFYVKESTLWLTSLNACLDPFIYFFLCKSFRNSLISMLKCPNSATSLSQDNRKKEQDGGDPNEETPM", "experiment": "β-arrestin recruitment assay at P2Y12 receptor", "assay_type": "cell-based", "details": "CHO-PK1 cells; for IC50: 2-methylthio-ADP as agonist at EC80 (3 μM), read-out: Inhibition P2Y12 receptor IC50; for EC50: read-out: Activation P2Y12 receptor EC50", "description": "The interaction of 2 with the human P2Y12 receptor was investigated in a β-arrestin recruitment assay using the galactosidase complementation technology as previously described.^25-27 The human P2Y12 receptor was expressed in CHO-PK1 cells (Eurofins DiscoverX, Fremont, CA, USA). For results see Table 2 and Table 3."}}}
{"smiles": "CCCN(Cc1ccc(-c2cn(CCF)nn2)cc1)c1nc(Cl)nc2c1ncn2[C@@H]1O[C@H](COP(=O)(O)CP(=O)(O)O)C(O)C1O", "note": "(stereo partly drawn) [Compound 2]", "values": [{"measurement": "IC50", "setting": "[1]", "value": "> 50", "unit": "µM"}, {"measurement": "IC50", "setting": "[2]", "value": "> 10", "unit": "µM"}, {"measurement": "EC50", "setting": "[2]", "value": "> 10", "unit": "µM"}]}
{"smiles": "O=C(NCCCCCCNC(=O)c1ccc2c(c1)C1(OC2=O)c2ccc(O)cc2Oc2cc(O)ccc21)c1ccc(CNc2nc(Cl)nc3c2ncn3[C@@H]2O[C@H](COP(=O)(O)CP(=O)(O)O)[C@@H](O)[C@H]2O)cc1", "note": "[Compound 20, (((((2R,3S,4R,5R)-5-(2-chloro-6-((4-((6-(3′,6′-dihydroxy-3-oxo-3H-spiro[isobenzofuran-1,9′-xanthene]-6-carboxamido)-hexyl)carbamoyl)benzyl)amino)-9H-purin-9-yl)-3,4-dihydroxytetrahydrofuran-2-yl)methoxy)(hydroxy)phosphoryl)methyl)phosphonic acid]", "values": [{"measurement": "IC50", "setting": "[1]", "value": 27.7, "unit": "µM"}, {"measurement": "IC50", "setting": "[2]", "value": "> 10", "unit": "µM"}, {"measurement": "EC50", "setting": "[2]", "value": "> 10", "unit": "µM"}]}
